Measurements reported in paper PMC6280375 (The Journal of Venomous Animals and Toxins Including …, 2018).

Tested on: BjussuLAAO-II
Settings: read-out: Km (mM) / Mean ± SD; 0.1 M HEPES pH 7, 45 °C, 2 mM OPD, 1 U/mL HRP

| SMILES | Km [mM] |
| --- | --- |
| NC(=O)CC[C@H](N)C(=O)O [Gln] | 3.2 ± 0.3 |
| N[C@@H](Cc1ccccc1)C(=O)O [Phe] | 0.1 |
| CSCC[C@H](N)C(=O)O [Met] | 0.6 ± 0.1 |
| N[C@@H](Cc1cnc[nH]1)C(=O)O [His] | 14.1 ± 1.9 |
| CC(C)C[C@H](N)C(=O)O [Leu] | 0.3 |
| CC[C@H](C)[C@H](N)C(=O)O [Ile] | 2 ± 0.1 |
| N[C@@H](Cc1ccc(O)cc1)C(=O)O [Tyr] | 1.1 ± 0.1 |
